From the NIST ThermoML archive (doi:10.1016/j.tca.2014.06.026)
± gives the expanded uncertainty stated by the source.

Experiment: xn = mol fraction of the nth substance listed
Details: 101 kPa, Liquid; for speed of sound: Frequency=2 MHz, Sing-around technique in a fixed-path interferometer; for viscosity: Oscillating disk viscometry; for mass density: Vibrating tube method

C1=CCCCC1 [cyclohexene] + CN1CCCC1=O
Details	mass density [kg/m3]	speed of sound [m/s]	viscosity [mPa·s]
303.15 K, x2 = 0	801.81 ± 0.15	1252.1 ± 0.8	0.581 ± 0.12
303.15 K, x2 = 0.1052	818.56 ± 0.15	1267.5 ± 0.8	0.612 ± 0.12
303.15 K, x2 = 0.2091	834.84 ± 0.15	1285.6 ± 0.8	0.653 ± 0.13
303.15 K, x2 = 0.3119	851.21 ± 0.15	1307.1 ± 0.9	0.698 ± 0.14
303.15 K, x2 = 0.4135	868.75 ± 0.16	1330.4 ± 0.9	0.748 ± 0.15
303.15 K, x2 = 0.514	889.05 ± 0.17	1356.2 ± 0.9	0.812 ± 0.16
303.15 K, x2 = 0.6134	912.45 ± 0.16	1384.5 ± 0.9	0.897 ± 0.18
303.15 K, x2 = 0.7116	938.12 ± 0.14	1417.6 ± 0.9	1.009 ± 0.2
303.15 K, x2 = 0.8088	964.81 ± 0.13	1456.8 ± 0.9	1.148 ± 0.23
303.15 K, x2 = 0.9049	992.11 ± 0.12	1502.7 ± 0.9	1.315 ± 0.26
308.15 K, x2 = 0	797.25 ± 0.15	1224.8 ± 0.8	0.549 ± 0.11
308.15 K, x2 = 0.1052	811.04 ± 0.15	1240.5 ± 0.8	0.579 ± 0.12
308.15 K, x2 = 0.2091	827.32 ± 0.15	1258.2 ± 0.8	0.618 ± 0.12
308.15 K, x2 = 0.3119	844.1 ± 0.2	1278.6 ± 0.8	0.663 ± 0.13
308.15 K, x2 = 0.4135	862.03 ± 0.16	1301.5 ± 0.9	0.715 ± 0.14
308.15 K, x2 = 0.514	882.54 ± 0.17	1326.4 ± 0.9	0.775 ± 0.15
308.15 K, x2 = 0.6134	906.06 ± 0.16	1355.1 ± 0.9	0.853 ± 0.17
308.15 K, x2 = 0.7116	931.63 ± 0.14	1388.3 ± 0.9	0.954 ± 0.19
308.15 K, x2 = 0.8088	957.89 ± 0.13	1426.8 ± 0.9	1.081 ± 0.22
308.15 K, x2 = 0.9049	985.56 ± 0.12	1472.5 ± 0.9	1.235 ± 0.25
313.15 K, x2 = 0	792.61 ± 0.15	1196.6 ± 0.8	0.516 ± 0.1
313.15 K, x2 = 0.1052	804.12 ± 0.15	1212.4 ± 0.8	0.551 ± 0.11
313.15 K, x2 = 0.2091	819.12 ± 0.15	1230.5 ± 0.8	0.587 ± 0.12
313.15 K, x2 = 0.3119	836.04 ± 0.15	1250.4 ± 0.8	0.63 ± 0.13
313.15 K, x2 = 0.4135	854.81 ± 0.16	1273.5 ± 0.8	0.68 ± 0.14
313.15 K, x2 = 0.514	875.73 ± 0.17	1298.8 ± 0.9	0.742 ± 0.15
313.15 K, x2 = 0.6134	899.06 ± 0.16	1327.1 ± 0.9	0.818 ± 0.16
313.15 K, x2 = 0.7116	924.14 ± 0.14	1360.3 ± 0.9	0.914 ± 0.18
313.15 K, x2 = 0.8088	950.51 ± 0.13	1398.7 ± 0.9	1.031 ± 0.21
313.15 K, x2 = 0.9049	979.38 ± 0.12	1444.1 ± 0.9	1.171 ± 0.23
318.15 K, x2 = 0	788.02 ± 0.15	1169.6 ± 0.8	0.488 ± 0.098
318.15 K, x2 = 0.1052	798.05 ± 0.15	1185.2 ± 0.8	0.522 ± 0.1
318.15 K, x2 = 0.2091	813.05 ± 0.15	1202.2 ± 0.8	0.558 ± 0.11
318.15 K, x2 = 0.3119	829.52 ± 0.15	1222.2 ± 0.8	0.597 ± 0.12
318.15 K, x2 = 0.4135	847.61 ± 0.16	1245.2 ± 0.8	0.642 ± 0.13
318.15 K, x2 = 0.514	868.15 ± 0.17	1270.4 ± 0.8	0.698 ± 0.14
318.15 K, x2 = 0.6134	891.64 ± 0.16	1298.6 ± 0.8	0.771 ± 0.15
318.15 K, x2 = 0.7116	917.16 ± 0.14	1330.3 ± 0.9	0.856 ± 0.17
318.15 K, x2 = 0.8088	943.71 ± 0.13	1369.2 ± 0.9	0.956 ± 0.19
318.15 K, x2 = 0.9049	972.27 ± 0.12	1416.1 ± 0.9	1.072 ± 0.21
